# “Also recorded” adds a separate entry of the source. No end group written: not given here. bromoacetamide scaffold = not defined here
# Legend:
# CCI injury sections = test: Immunohistochemistry of biotinylated HCDR3 constructs on CCI injury sections; assay type: binding, mice; conditions: for bioreactivity of chronic injury targeting HCDR3 constructs: 21 dpi tissue sections, 5 μM construct, Triton-X permeabilization; for bioreactivity of control HCDR3 constructs on injured neural tissue: injured tissue at 1 or 7 days post-injury
# Description: Mice were subject to CCI or sham (n=3 per group/sex) as described previously and perfused with 0.1 M phosphate buffer and 4% paraformaldehyde at specified timepoints. Brains were fixed overnight in 4% paraformaldehyde at 4° C. followed by immersion in 15% sucrose and then 30% sucrose. Brains were flash frozen on dry ice in optimal cutting temperature medium and stored at −80° C. Samples were sectioned coronally at 20 μm thickness.
# Tissue sections were incubated with excess streptavidin and biotin to block endogenous biotin using an Endogenous Biotin blocking kit (Thermo Fisher Scientific). After permeabilization with either 0.2% Triton-X 100 or Tween-20, 5 μM of biotinylated HCDR3-construct was incubated on tissue overnight at 4° C. Simultaneously, sections that served as controls were incubated with control HCDR3-construct or 1×PBS. Tissue sections were washed in 1×PBS and incubated with Alexa Fluor 555 streptavidin at room temperature for 2 hours, followed by 1×PBS washes and DAPI incubation for 5 minutes. Slides were imaged using fluorescence microscopy with Leica software.
# For NGS analysis, raw counts were first normalized to reads per million (RPM) to account for library differences. A normalized z-score was then used as a threshold to identify dAbs that were highly represented and specific to their distinct injury timepoint. Selected dAbs were then screened for enrichment factor and individual frequency. Fluorescence percentage per area was conducted with ordinary one way ANOVA followed by Dunnett's test for multiple comparisons. Statistical significance was determined as p<0.05. Identified proteins that met the false discovery rate (FDR) threshold of <0.01 were used in all ontological assessments to categorize biological processes and candidate pathways.
# tissue lysates = test: Immunoprecipitation-mass spectrometry with HCDR3 constructs as capture antibodies; assay type: binding, Mus musculus; conditions: A2 with 1 dpi tissue lysates, SA1 with 7 dpi tissue lysates
# Source text: (§1) CCI and sham surgeries were completed as described previously. Mice were sacrificed at 1 d, 7 d, or 21 d post-injury (n=3/group) via transcardial perfusion with phosphate buffer, pH 7.4. The ipsilateral hemisphere of the brain was immediately dissected and homogenized in chilled lysis buffer (1×PBS, 1% Triton, protease inhibitor cocktail). Protein concentration of the homogenates was quantified with the Pierce BCA Protein Assay Kit (Thermo Fisher).
# (§2) Streptavidin-coupled Dynabeads (Thermo Fisher) were washed with 1×PBST with 0.1% Tween and incubated with 1 mg/mL tissue lysate for 1 hour at room temperature. Pre-cleared lysate was collected after separation from magnetic beads and incubated with 450 pmol of HCDR3-construct rotating overnight at 4° C. to form the immune complex. The immune complex was then incubated with Streptavidin-coupled Dynabeads for 1 hour at room temperature before antigen was eluted from beads by heating sample at 95° C. with SDS PAGE running buffer. Samples were run on a pre-cast 12% SDS-PAGE gel (Bio-Rad) and bands were excised. Gel bands were processed by ASU Biodesign Mass Spectrometry Facility for digestion and protein identification with the Thermo Orbitrap Fusion Lumos (Thermo Fisher).
# UniProt IDs of identified proteins were uploaded to the PANTHER classification system and searched against the Mus musculus reference database. […]
# [1] = molecular target: T1, Endoplasmic reticulum chaperone BiP (Mus musculus, UniProt P20029); test: Immunoprecipitation-mass spectrometry, candidate protein; assay type: binding
# T1 construct: The ipsilateral hemisphere of the brain was immediately dissected and homogenized in chilled lysis buffer; from tissue; host or cells: ipsilateral brain hemisphere lysate of CCI or sham mice
# T1 sequence (P20029 20-655): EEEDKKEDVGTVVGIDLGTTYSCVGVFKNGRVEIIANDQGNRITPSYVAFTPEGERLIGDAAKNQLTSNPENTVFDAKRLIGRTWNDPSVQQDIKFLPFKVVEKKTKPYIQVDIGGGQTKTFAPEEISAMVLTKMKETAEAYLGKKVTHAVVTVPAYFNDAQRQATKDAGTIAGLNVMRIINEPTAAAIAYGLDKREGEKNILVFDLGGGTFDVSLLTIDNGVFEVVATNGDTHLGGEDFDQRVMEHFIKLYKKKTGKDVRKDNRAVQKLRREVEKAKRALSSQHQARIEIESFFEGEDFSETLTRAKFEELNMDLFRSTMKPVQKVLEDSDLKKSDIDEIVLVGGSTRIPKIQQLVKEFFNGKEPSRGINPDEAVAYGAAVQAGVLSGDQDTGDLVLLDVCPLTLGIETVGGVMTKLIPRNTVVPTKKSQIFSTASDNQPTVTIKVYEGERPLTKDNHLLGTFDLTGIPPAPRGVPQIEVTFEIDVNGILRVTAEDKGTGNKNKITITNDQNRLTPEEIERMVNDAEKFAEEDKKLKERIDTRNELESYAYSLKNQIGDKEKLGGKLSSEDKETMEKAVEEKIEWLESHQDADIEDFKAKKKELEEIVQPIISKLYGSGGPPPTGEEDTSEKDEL
# Source text: as §1, §2
# (§3) UniProt IDs of identified proteins were uploaded to the PANTHER classification system and searched against the Mus musculus reference database. Ontological assessments to characterize cellular localization, molecular function, biological processes, and pathways were conducted with PANTHER Overrepresentation test (Fisher's Exact test, p<0.05 using Benjamini Hochberg False Discovery Rate correction) with the GO Ontology database (released 2019-10-08).
# [2] = molecular target: T2, Heat shock cognate 71 kDa protein (Mus musculus, UniProt P63017); test: as above; assay type: binding
# T2 construct: The ipsilateral hemisphere of the brain was immediately dissected and homogenized in chilled lysis buffer; from tissue; host or cells: ipsilateral brain hemisphere lysate of CCI or sham mice
# T2 sequence (P63017 whole entry): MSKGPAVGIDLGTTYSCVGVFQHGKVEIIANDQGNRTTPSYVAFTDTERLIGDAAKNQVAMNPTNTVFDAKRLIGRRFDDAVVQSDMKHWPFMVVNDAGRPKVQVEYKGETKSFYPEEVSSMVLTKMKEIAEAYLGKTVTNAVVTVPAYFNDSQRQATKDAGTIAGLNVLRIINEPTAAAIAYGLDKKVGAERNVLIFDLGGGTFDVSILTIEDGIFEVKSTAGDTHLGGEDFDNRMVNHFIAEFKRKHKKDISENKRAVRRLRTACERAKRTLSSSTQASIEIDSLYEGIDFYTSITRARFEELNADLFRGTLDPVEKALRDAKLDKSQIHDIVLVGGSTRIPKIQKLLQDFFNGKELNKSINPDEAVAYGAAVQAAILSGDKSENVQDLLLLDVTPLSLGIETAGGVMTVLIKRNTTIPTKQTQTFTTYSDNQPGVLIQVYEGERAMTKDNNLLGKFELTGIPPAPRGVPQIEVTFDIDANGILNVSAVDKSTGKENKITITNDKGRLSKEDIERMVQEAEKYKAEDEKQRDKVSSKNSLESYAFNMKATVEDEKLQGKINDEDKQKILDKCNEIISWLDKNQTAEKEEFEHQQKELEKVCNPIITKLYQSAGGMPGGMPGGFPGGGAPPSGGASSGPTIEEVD
# Source text: as §1, §2, §3
# [3] = molecular target: T3, Succinate--CoA ligase [ADP-forming] subunit beta, mitochondrial (Mus musculus, UniProt Q9Z2I9); test: as above; assay type: binding
# T3 construct: The ipsilateral hemisphere of the brain was immediately dissected and homogenized in chilled lysis buffer; from tissue; host or cells: ipsilateral brain hemisphere lysate of CCI or sham mice
# T3 sequence (Q9Z2I9 54-463): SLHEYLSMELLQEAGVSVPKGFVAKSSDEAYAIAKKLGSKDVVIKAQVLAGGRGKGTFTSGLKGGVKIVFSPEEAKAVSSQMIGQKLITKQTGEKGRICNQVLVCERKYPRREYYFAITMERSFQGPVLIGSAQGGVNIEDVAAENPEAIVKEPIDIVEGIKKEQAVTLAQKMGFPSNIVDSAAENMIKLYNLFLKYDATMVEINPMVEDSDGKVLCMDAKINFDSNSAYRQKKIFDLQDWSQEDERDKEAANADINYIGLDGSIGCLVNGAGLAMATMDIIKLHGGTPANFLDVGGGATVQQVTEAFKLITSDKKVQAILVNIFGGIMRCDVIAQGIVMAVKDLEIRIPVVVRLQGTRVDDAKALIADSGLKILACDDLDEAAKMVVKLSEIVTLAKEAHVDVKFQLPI
# T3 sequence (Q9WUM5 35-346 partner): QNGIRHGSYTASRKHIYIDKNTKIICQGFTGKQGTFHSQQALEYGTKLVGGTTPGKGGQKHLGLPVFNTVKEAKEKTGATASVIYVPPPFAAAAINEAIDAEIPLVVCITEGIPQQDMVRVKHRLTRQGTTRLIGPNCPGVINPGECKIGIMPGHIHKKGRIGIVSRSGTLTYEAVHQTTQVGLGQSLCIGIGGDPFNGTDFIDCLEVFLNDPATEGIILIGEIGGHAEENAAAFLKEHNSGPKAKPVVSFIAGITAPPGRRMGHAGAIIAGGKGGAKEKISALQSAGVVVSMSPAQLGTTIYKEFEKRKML
# Source text: as §1, §2, §3
# [4] = molecular target: T4, citrate synthase, mitochondrial (Mus musculus, UniProt Q9CZU6); test: as above; assay type: binding
# T4 construct: The ipsilateral hemisphere of the brain was immediately dissected and homogenized in chilled lysis buffer; from tissue; host or cells: ipsilateral brain hemisphere lysate of CCI or sham mice
# T4 sequence (Q9CZU6 28-464): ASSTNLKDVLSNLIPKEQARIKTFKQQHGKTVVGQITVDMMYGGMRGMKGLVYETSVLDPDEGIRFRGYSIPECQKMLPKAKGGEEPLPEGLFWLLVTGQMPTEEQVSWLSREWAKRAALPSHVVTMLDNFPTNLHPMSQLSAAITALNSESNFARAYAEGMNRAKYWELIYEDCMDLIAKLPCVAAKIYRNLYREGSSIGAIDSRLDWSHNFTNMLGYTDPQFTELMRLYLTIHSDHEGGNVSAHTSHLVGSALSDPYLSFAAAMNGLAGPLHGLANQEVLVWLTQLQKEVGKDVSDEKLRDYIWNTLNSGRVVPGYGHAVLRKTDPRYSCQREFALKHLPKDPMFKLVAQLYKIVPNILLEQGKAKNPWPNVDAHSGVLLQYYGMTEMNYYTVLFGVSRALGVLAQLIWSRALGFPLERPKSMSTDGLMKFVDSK
# Source text: as §1, §2, §3
sequence,measurement,setting,value
"TDLAVAHPVRY (linker (positions not given here) via bromoacetamide scaffold; not fully specified; reading uncertain; also: cyclized on bromoacetamide scaffold with biotin, sites not given here) [SA1, 3, subacute stage; peptide cyclized on bromoacetamide scaffold containing biotin]",stain in the peri-injury region of injured tissue,CCI injury sections; 7 days post-injury tissue,Positive stain; also recorded: positively binding
same,"bioreactivity, 7 days post-injury versus 1 days post-injury or 21 days post-injury tissue","CCI injury sections; p=0.0993 (1 dpi), p=0.0780 (21 dpi)",No significant differences
same,localization of stain in sham brain sections,"CCI injury sections; sham brain sections, p=0.0079 versus 7 days post-injury",not observed
same,immunoprecipitation eluate separated by SDS-PAGE,tissue lysates,isolated proteins unique to the injury condition
same,# Peptides,[1],6
same,# Peptides,[2],6
"RLVRESSQEHTLSS [CH1, 5, chronic injury]",bioreactivity of chronic injury targeting HCDR3 constructs,CCI injury sections,negligible bioreactivity
"GGDTFRDASQSMHF [dAb-CDR3, reference compound]",bioreactivity of control HCDR3 constructs on injured neural tissue,CCI injury sections,no detectable bioreactivity
"TDCQETPYELKS [CH2, 6, chronic injury]",bioreactivity of chronic injury targeting HCDR3 constructs,CCI injury sections,non-specific staining
"SLYGSSRHTAPISF (linker (positions not given here) via bromoacetamide scaffold; not fully specified; reading uncertain; also: cyclized on bromoacetamide scaffold with biotin, sites not given here) [A2, 2, acute stage; peptide cyclized on bromoacetamide scaffold containing biotin]",sensitivity and affinity to the peri-injury region,"CCI injury sections; 1 day post-injury compared to sham, subacute, and chronic tissue sections",high sensitivity and affinity
same,bioreactivity determined by the fluorescence on 1 dpi tissue,CCI injury sections; in comparison to sham (p=0.0120) and 7 days post-injury tissue (p=0.0221),significant bioreactivity
same,"bioreactivity, 1 days post-injury versus 21 days post injury tissue",CCI injury sections; p=0.0658,No significant differences
same,immunoprecipitation eluate separated by SDS-PAGE,tissue lysates,isolated proteins unique to the injury condition
same,# Peptides,[3],4
same,# Peptides,[4],3
"TAERDARTFQY (linker (positions not given here) via bromoacetamide scaffold; not fully specified; reading uncertain; also: cyclized on bromoacetamide scaffold with biotin, sites not given here) [A1, 1, acute stage; peptide cyclized on bromoacetamide scaffold containing biotin]",IHC signal on injured tissue,CCI injury sections; fixed mouse brain tissue at 1 dpi,no detectable signal; also recorded: did not show detectable bioreactivity
"GPLDGKEEELRF [SP-CDR3, reference compound]",bioreactivity of control HCDR3 constructs on injured neural tissue,CCI injury sections,no detectable bioreactivity
"TGHEGENEMAS [HE-CDR3, reference compound]",bioreactivity of control HCDR3 constructs on injured neural tissue,CCI injury sections,no detectable bioreactivity

# — patent US11789029B2, “Temporal traumatic brain injury biomarkers and methods of use thereof” (ARIZONA BOARD OF REGENTS ON BEHALF OF ARIZONA STATE …, priority 2019, dated 2023)
